Like-named read-outs stand apart in the source and are kept apart here.
Experiments:
FaDu = assay: cells; details: Homo sapiens
CaSki = assay: MTT cytotoxicity assay, CaSki
DLD1 = assay: MTT cytotoxicity assay, DLD1; details: Homo sapiens, DLD-1, read-out: cytotoxicity IC50 DLD1
Experimental: (§1) Cell lines and cytotoxicity assays: All cell lines were obtained from the American Type Culture Collection (ATCC) and cultured in the specified medium supplemented with 10% fetal bovine serum, 100 IU/mL penicillin, and 100 μg/mL streptomycin at 37° C. in a humidified 5% CO2/95% air incubator. […] To assess drug cytotoxicity, cells were seeded at 2,500 cells/well (10,000 cells/well for MM lines) in 100 μL medium in 96-well plate and after 24 treated with compounds for 72 h, incubated according to the manufacturer's protocol with the Thiazolyl Blue Tetrazolium Bromide (Sigma, M2128) and A570 measured using a Benchmark Plus microplate spectrophotometer (BIO-RAD). IC50 data was analyzed by Graphpad Prism software. In the chirality studies the cells were treated with compounds for 48 h, and the cells were incubated and measured via the preceeding protocols.

HEC-1A = assay: MTT cytotoxicity assay, HEC-1A; details: read-out: cytotoxicity IC50 HEC-1A, Tables 3A/4B/4C
SKOV3-TR = assay: MTT cytotoxicity assay, SKOV3-TR
PEO4 = assay: cells; details: PEO4, read-out: cytotoxicity IC50 PEO4
Experimental: as §1

ROS = ROS by Amplex Red, ES2 cells; type: cell-based, human; details: ES2, 12 hr; listed in order of potency
Experimental: FIG. 16C illustrates ES2 cells treated for 12 hr with compounds (or as a positive control, H2O2) at the indicated doses, and then reactive oxygen species (i.e. ROS) levels measured by adding Amplex Red and HRP.
Amplex Red Assay to measure ROS: Amplex Red reagent (#A12222, Thermo Scientific) combined with horseradish peroxidase (HRP) was used to detect H2O2. Briefly cells were treated in 96 well plates with corresponding compounds at indicated times. Next 50 μM Amplex® Red reagent plus 1 U/mL HRP in 50 mM sodium phosphate buffer, pH 7.4, were added to cells and incubated for 30 minutes at room temperature. Fluorescence was measured with a fluorescence-based microplate reader using excitation at 530±12.5 nm and detection at 580±25 nm. Background fluorescence of 969 units for Amplex® Red reagent, determined for a no-H2O2 control reaction, was subtracted from each value. H2O2 treatment (1 h) was used as positive control.

SiHa = assay: MTT cytotoxicity assay, SiHa
TC1-Lu = assay: MTT cytotoxicity assay, TC1-Lu; details: read-out: cytotoxicity IC50 TC1-Lu
Experimental: as §1

HCT116 = assay: MTT cytotoxicity assay, HCT116
intracellular GSH = assay: Total GSH assay, ES2 cells; type: cell-based, human; details: ES2, 12 hr
From the text: FIG. 16B illustrates ES2 cells treated with compounds for 12 hr and the total GSH level assayed.
Recent insights indicate that ER stress and oxidative stress are highly interrelated biological process which regulate a wide range of signaling pathways in cells. […] Oxidative stress is characterized by an imbalance between the production of ROS and the availability of free GSH. Generation of ROS is considered an early event in the process of apoptotic cell death (68). To counteract ROS, cells upregulate antioxidant pathways including intracellular glutathione (GSH).
Luciferase and GSH assays: Sub-confluent cultures of cells were transfected with 4Ub-FL or FL plasmid using Lipofectamine 2000 reagent (Life Technologies). Cells were seeded at 10,000 cells/well in 96-wells plate 48 hr post transfection and incubated with compounds or vehicle (DMSO) at the doses and times indicated. Luciferase activity in cell lysate was determined with a luciferase assay kit (Promega) according to the manufacturer's instructions. Bioluminescence was measured by using a Glomax Multidetection system (Promega). Glutathione was assayed using the Promega GSH assay kit (V6611).

SKOV3 = assay: MTT cytotoxicity assay, SKOV3; details: Homo sapiens
Experimental: (§2) Cell lines and cytotoxicity assays: All cell lines were obtained from the American Type Culture Collection (ATCC) and cultured in the specified medium supplemented with 10% fetal bovine serum, 100 IU/mL penicillin, and 100 μg/mL streptomycin at 37° C. in a humidified 5% CO2/95% air incubator. […] To assess drug cytotoxicity, cells were seeded at 2,500 cells/well (10,000 cells/well for MM lines) in 100 μL medium in 96-well plate and after 24 treated with compounds for 72 h, incubated according to the manufacturer's protocol with the Thiazolyl Blue Tetrazolium Bromide (Sigma, M2128) and A570 measured using a Benchmark Plus microplate spectrophotometer (BIO-RAD). IC50 data was analyzed by Graphpad Prism software.

intracellular ATP = assay: Luciferase-based ATP measurement, ES2 cells; type: cell-based, human; details: luciferase expressing ES2 cells, 4 hr, sublethal doses
Experimental: Briefly, firefly luciferase expressing ES2 cells were treated for 4 hr with compounds at sublethal doses and the bioluminescence was measured in intact cells using luminometer by adding luciferin. […] This is associated with enhanced glycolysis while bortezomib suppresses oxidative phosphorylation (OXPHOS) (66).
ATP measurement assay: To measure ATP levels in cells, luciferase based bioluminescence assay was performed. Briefly cells stably expressing firefly luciferase plated in a 6 well plate (250,000 cells/well) in growth medium. After 24 h incubation, cells were treated with compounds at indicated concentrations for the period of 4 h and the bioluminescence was measured by IVIS 200 imager in intact cells by adding luciferin substrate to the growth medium. Cell viability was assessed in parallel using an MTT assay.

HeLa = assay: MTT cytotoxicity assay, HeLa; details: read-out: cytotoxicity IC50 HeLa, Tables 3A/4B/4C
HS578T = assay: MTT cytotoxicity assay, HS578T
[1] = system: HFF (Human Foreskin Fibroblast); assay: MTT cytotoxicity assay, HFF normal cells; type: cell-based; details: read-out: IC50 HFF
Experimental: as §2

Mouse Skin Keratinocytes = assay: MTT cytotoxicity assay, mouse skin keratinocytes; type: cell-based; details: Keratinocyte, read-out: IC50 Keratinocytes
Experimental: as §2

HCT116 ARID1A^-/- = assay: MTT cytotoxicity assay, HCT116 ARID1A knockout; type: cell-based, human; details: for IC50: Homo sapiens, read-out: IC50 HCT116 ARID1A^-/-
From the text: Loss of ARID1A function is a common driver of ovarian and some other cancer types, and it confers vulnerability to inhibition of GSH (36).

ME180 = assay: MTT cytotoxicity assay, ME180; type: cell-based; details: Homo sapiens, read-out: IC50 ME180
Experimental: as §2

MDA-MB231 = assay: MTT cytotoxicity assay, MDA-MB231; type: cell-based; details: Homo sapiens, read-out: IC50 MDA-MB231
Experimental: as §2

PC3 = assay: MTT cytotoxicity assay, PC3; details: Homo sapiens
RPMI8226 = assay: MTT cytotoxicity assay, RPMI8226; type: cell-based; details: Homo sapiens, read-out: IC50 RPMI8226
Experimental: The cytotoxic efficacy of selected compounds was assessed against multiple myeloma (MM) cell lines, as this is a validated clinical target for the licensed proteasome inhibitors.
as §2

[2] = read-out: cytotoxicity IC50 FaDu
[3] = read-out: cytotoxicity IC50 CasKi, Tables 3A/4B/4C, MTT assay
[4] = read-out: cytotoxicity IC50 SKOV3-TR, Tables 3A/4B/4C, MTT assay
[5] = read-out: cytotoxicity IC50 SiHa, Tables 3A/4B/4C, MTT assay
[6] = read-out: cytotoxicity IC50 HCT116, Tables 3A/4B/4C, MTT assay
[7] = SK-OV-3, read-out: cytotoxicity IC50 SKOV3
[8] = read-out: cytotoxicity IC50 HS578T, Tables 3A/4B/4C, MTT assay
[9] = Table 3, MTT, 48 hr, normal Human Foreskin Fibroblast
[10] = Table 3, MTT, 48 hr, normal Mouse Skin
[11] = read-out: IC50 HCT116, Table 3, MTT, 48 hr, Colon
[12] = HCT-116, Table 3, MTT, 48 hr, Colon
[13] = PC-3, read-out: cytotoxicity IC50 PC3

C[C@H]1/C(=C\c2ccc([N+](=O)[O-])cc2)C(=O)/C(=C/c2ccc([N+](=O)[O-])cc2)CN1C(=O)[C@@H](N)Cc1ccccc1
IC50 (FaDu; [2]): 78 nM
IC50 (CaSki; [3]): 27 nM
IC50 (DLD1): 164 nM
IC50 (HEC-1A): 207 nM
IC50 (SKOV3-TR; [4]): 60 nM
IC50 (PEO4): 41 nM
level of ROS (Amplex Red) (ROS): raised the level of ROS in a dose-dependent manner
IC50 (SiHa; [5]): 34 nM
IC50 (TC1-Lu): 114 nM
IC50 (HCT116; [6]): 80 nM
intracellular GSH concentrations (intracellular GSH): reduced intracellular GSH concentrations
IC50 (SKOV3; [7]): 40 nM
ATP-dependent bioluminescence (intracellular ATP levels) (intracellular ATP): reduced bioluminescence

CC(C)C[C@H](NC(=O)[C@H](Cc1ccccc1)NC(=O)c1cnccn1)B(O)O [Bortezomib, bortezomib, reference compound]
IC50 (DLD1): 4.8 nM
IC50 (HEC-1A): 153 nM
IC50 (HeLa): 3 nM
IC50 (PEO4): 31 nM
level of ROS (Amplex Red) (ROS): raised the level of ROS in a dose-dependent manner
IC50 (HS578T; [8]): 13 nM
IC50 (TC1-Lu): 4.5 nM
IC50 [1, 9]: > 100 nM
IC50 (Mouse Skin Keratinocytes; [10]): > 100 nM
IC50 (HCT116; [11]): 3.2 nM
intracellular GSH concentrations (intracellular GSH): reduced intracellular GSH concentrations
IC50 (SKOV3; [7]): 1.5 nM
ATP-dependent bioluminescence (intracellular ATP levels) (intracellular ATP): not evident
IC50 (HCT116 ARID1A^-/-; [12]): 2.8 nM

N[C@@H](Cc1ccccc1)C(=O)N1C/C(=C\c2ccc([N+](=O)[O-])cc2)C(=O)/C(=C/c2ccc([N+](=O)[O-])cc2)C1 [RA183, reference compound]
IC50 (FaDu; [2]): 150 nM
IC50 (CaSki; read-out: IC50 CaSki, Table 3, MTT, 48 hr, Cervical (HPV +ve)): 312 nM
IC50 (CaSki; [3]): 312 nM
IC50 (ME180; ME-180, 48 h): 293 nM
IC50 (HEC-1A): 378 nM
IC50 (SKOV3-TR; read-out: IC50 SKOV3-TR, Table 3, MTT, 48 hr, Ovarian, paclitaxel resistant): 77 nM
IC50 (SKOV3-TR; [4]): 77 nM
IC50 (HeLa): 112 nM
level of ROS (Amplex Red) (ROS): raised the level of ROS in a dose-dependent manner
IC50 (MDA-MB231; MDA-MB-231, 48 h): 124 nM
IC50 (HS578T; read-out: IC50 HS578T, Table 3, MTT, 48 hr, Triple Negative Breast): 89 nM
IC50 (HS578T; [8]): 89 nM
IC50 (SiHa; read-out: IC50 SiHa, Table 3, MTT, 48 hr, Cervical (HPV +ve)): 263 nM
IC50 (SiHa; [5]): 263 nM
IC50 ([1]; Homo sapiens, Fibroblast, 48 h): > 1000 nM
IC50 (Mouse Skin Keratinocytes; Mus musculus, 48 h): > 1000 nM
IC50 (HCT116; [11]): 193 nM
IC50 (HCT116; [6]): 193 nM
IC50 (SKOV3; SK-OV-3, 48 h, read-out: IC50 SKOV3): 54 nM
IC50 (SKOV3; [7]): 54 nM
IC50 (PC3; PC-3, 48 h, read-out: IC50 PC3): 133 nM
IC50 (PC3; [13]): 133 nM
IC50 (RPMI8226; RPMI-8226, 48 h): 88 nM
ATP-dependent bioluminescence (intracellular ATP levels) (intracellular ATP): reduced bioluminescence
IC50 (HCT116 ARID1A^-/-; HCT-116, 48 h): 155 nM

N[C@@H](Cc1ccccc1)C(=O)N1C/C(=C\c2ccc(Cl)c(Cl)c2)C(=O)/C(=C/c2ccc(Cl)c(Cl)c2)C1 [RA190, reference compound]
IC50 (FaDu; [2]): 300 nM
IC50 (CaSki; [3]): 324 nM
IC50 (ME180; ME-180, Table 3, MTT, 48 hr, Cervical (HPV +ve)): 183 nM
IC50 (HEC-1A): 431 nM
IC50 (SKOV3-TR; [4]): 109 nM
IC50 (HeLa): 85 nM
IC50 (PEO4): 168 nM
IC50 (MDA-MB231; MDA-MB-231, Table 3, MTT, 48 hr, Triple Negative Breast): 134 nM
IC50 (HS578T; [8]): 78 nM
IC50 (SiHa; [5]): 603 nM
IC50 [1, 9]: > 1000 nM
IC50 (Mouse Skin Keratinocytes; [10]): > 1000 nM
IC50 (HCT116; [6]): 239 nM
IC50 (SKOV3; [7]): 73 nM
IC50 (PC3; [13]): 162 nM
IC50 (RPMI8226; RPMI-8226, Table 3, MTT, 48 hr, Multiple Myeloma): 45 nM
IC50 (HCT116 ARID1A^-/-; [12]): 164 nM

O=C(CCl)N[C@@H](Cc1ccccc1)C(=O)N1C/C(=C\c2ccc([N+](=O)[O-])cc2)C(=O)/C(=C/c2ccc([N+](=O)[O-])cc2)C1 [RA375]
IC50 (FaDu; 48 h, read-out: IC50 FaDu): 142 nM
IC50 (CaSki; read-out: IC50 CaSki): 43 nM
IC50 (CaSki; [3]): 3 nM
IC50 (DLD1): 24 nM
IC50 (ME180; ME-180, 48 h): 20 nM
IC50 (SKOV3-TR; [4]): 22 nM
IC50 (MDA-MB231; MDA-MB-231, 48 h): 22 nM
IC50 (SiHa; read-out: IC50 SiHa): 41 nM
IC50 ([1]; Homo sapiens, Fibroblast, 48 h): > 1000 nM
IC50 (Mouse Skin Keratinocytes; Mus musculus, 48 h): > 1000 nM
IC50 (HCT116; [6]): 89 nM
IC50 (SKOV3; [7]): 26 nM
IC50 (PC3; PC-3, 48 h, read-out: IC50 PC3): 27 nM
IC50 (RPMI8226; RPMI-8226, 48 h): 9 nM
fold less sensitive: parental HCT116 vs isogenic ARID1A knockout (HCT116 ARID1A^-/-): 4 fold
IC50 (HCT116 ARID1A^-/-; HCT-116, 48 h): 20 nM

CC1/C(=C\c2ccc([N+](=O)[O-])cc2)C(=O)/C(=C/c2ccc([N+](=O)[O-])cc2)CN1C(=O)[C@H](Cc1ccccc1)NC(=O)CCl (stereo partly drawn) [RA414]
IC50 (FaDu; [2]): 78 nM
IC50 (DLD1): < 40 nM
IC50 (HEC-1A): 196 nM
IC50 (SKOV3-TR; [4]): < 20 nM
IC50 (HeLa): 3 nM
IC50 (PEO4): 30 nM
level of ROS (Amplex Red) (ROS): raised the level of ROS in a dose-dependent manner
IC50 (HS578T; [8]): 1.5 nM
IC50 (SiHa; [5]): 7.5 nM
IC50 (TC1-Lu): 40 nM
IC50 (HCT116; [6]): 20 nM
intracellular GSH concentrations (intracellular GSH): reduced intracellular GSH concentrations
IC50 (SKOV3; [7]): < 20 nM
IC50 (PC3; [13]): 12 nM

From patent publication US12673918B2, “Small molecule RPN13 inhibitors with antitumor properties” (The Johns Hopkins University, priority 2019, dated 2026)
